Measured values: patent US4337199A, “Antibiotic β-lactam compounds, production thereof, and their use as antimicrobial agent” (Sanraku-Ocean Co., Ltd., priority 1978, dated 1982)
In brackets after ≈: the same amount, converted by molar mass.

Columns and labels:
Assay in all cases: minimum inhibitory concentration, agar dilution assay
Type in all cases: cell-based
Providencia sp. P8 = conditions: SP.P8, agar dilution, 35° C., 20 hours, read-out: minimum inhibitory concentration
Method: (§1) The antibiotic activities shown in Tables I-1 to I-8 above were determined in the following manner.
(§2) The minimum inhibitory concentrations of the compounds of formula (I-a-1) or (I-b-1) in Tables I-1 to I-7 and the known compounds in Table I-8 on the various microorganisms shown in the above tables were measured by an agar dilution assay method using a brain heart infusion agar medium "Difco" (a product of Difco Laboratories Inc.)
(§3) A sample of the test compound was dissolved in sterile distilled water and diluted to prepare a two-fold dilution series of the compound solution. In a petri plate of 9 cm diameter, 1 ml of the compound solution was added to 9 ml of molten sterile heart infusion agar medium (Difco Laboratories Inc.) at about 60° C. to prepare the compound-containing agar plate. An overnight culture of each test organism indicated in the above table which was prepared by stationary cultivation in Trypto-Soy broth (Eiken Chemi. Co., Ltd.) at 35° C. for 18 to 20 hours, was diluted with the Trypto-Soy broth to give approximately 10^8 cells/ml and the diluted inoculum was inoculated onto the compound-containing agar plates. After cultivating the plates at 35° C. for 20 hours, the growth of the organism was observed. The minimum concentration of the compound at which no growth of the microorganism was noted was determined, and defined as the minimum inhibitory concentration of the test compound.

Proteus sp. P22 = conditions: agar dilution, 35° C., 20 hours; read-out: minimum inhibitory concentration
Method: as §1, §2, §3

Proteus vulgaris GN76 = conditions: GN76, agar dilution, 35° C., 20 hours, read-out: minimum inhibitory concentration
Method: as §1, §2, §3

Serratia marcescens T55 = conditions: T55, agar dilution, 35° C., 20 hours, read-out: minimum inhibitory concentration
Method: as §1, §2, §3

[1] = test system: Pseudomonas aeruginosa IFO3445; conditions: IFO3445, agar dilution, 35° C., 20 hours, read-out: minimum inhibitory concentration
Method: as §1, §2, §3

Proteus rettgeri P7 = conditions: Providencia rettgeri, P7; agar dilution, 35° C., 20 hours; read-out: minimum inhibitory concentration
Method: as §1, §2, §3

[2] = test system: Pseudomonas aeruginosa NCTC10490; conditions: NCTC10490, agar dilution, 35° C., 20 hours, read-out: minimum inhibitory concentration
Method: as §1, §2, §3

Serratia marcescens S18 = conditions: S18, agar dilution, 35° C., 20 hours, read-out: minimum inhibitory concentration
Method: as §1, §2, §3

[3] = test system: Enterobacter aerogenes E19; conditions: Klebsiella aerogenes, E19; agar dilution, 35° C., 20 hours; read-out: minimum inhibitory concentration
Method: as §1, §2, §3

Enterobacter sp. E8 = conditions: SP.E8, agar dilution, 35° C., 20 hours, read-out: minimum inhibitory concentration
Method: as §1, §2, §3

Alcaligenes faecalis A 1 = conditions: A1, agar dilution, 35° C., 20 hours, read-out: minimum inhibitory concentration
Method: as §1, §2, §3

[4] = test system: Staphylococcus epidermidis; conditions: agar dilution, 35° C., 20 hours, read-out: minimum inhibitory concentration
Method: as §1, §2, §3

[5] = test system: Staphylococcus aureus FDA 209P; conditions: FDA209P, agar dilution, 35° C., 20 hours, read-out: minimum inhibitory concentration
Method: as §1, §2, §3

Enterobacter cloacae 45 = conditions: Enterobacter cloacae, 45; agar dilution, 35° C., 20 hours; read-out: minimum inhibitory concentration
Method: as §1, §2, §3

[6] = test system: Staphylococcus aureus Smith; conditions: agar dilution, 35° C., 20 hours, read-out: minimum inhibitory concentration
Method: as §1, §2, §3

[7] = test system: Comamonas terrigena B-996; conditions: B996, agar dilution, 35° C., 20 hours, read-out: minimum inhibitory concentration
Method: as §1, §2, §3

Escherichia coli RGN 823 = conditions: RGN823, agar dilution, 35° C., 20 hours, read-out: minimum inhibitory concentration
Method: as §1, §2, §3

Proteus mirabilis P6 = conditions: P6, agar dilution, 35° C., 20 hours, read-out: minimum inhibitory concentration
Method: as §1, §2, §3

[8] = test system: Klebsiella pneumoniae K-13; conditions: K13, agar dilution, 35° C., 20 hours, read-out: minimum inhibitory concentration
Method: as §1, §2, §3

[9] = test system: Bacillus subtilis ATCC 6633; conditions: ATCC6633, agar dilution, 35° C., 20 hours, read-out: minimum inhibitory concentration
Method: as §1, §2, §3

Sarcina lutea = conditions: Micrococcus luteus; agar dilution, 35° C., 20 hours; read-out: minimum inhibitory concentration
Method: as §1, §2, §3

[10] = test system: Staphylococcus aureus Russell; conditions: agar dilution, 35° C., 20 hours, read-out: minimum inhibitory concentration
Method: as §1, §2, §3

Escherichia coli K-12 = conditions: K12, agar dilution, 35° C., 20 hours, read-out: minimum inhibitory concentration
Method: as §1, §2, §3

[11] = test system: Citrobacter freundii GN 346; conditions: GN346, agar dilution, 35° C., 20 hours, read-out: minimum inhibitory concentration
Method: as §1, §2, §3

Row | MIC (Providencia sp. P8) [µg/mL] | MIC (Proteus sp. P22) [µg/mL] | MIC (Proteus vulgaris GN76) [µg/mL] | MIC (Serratia marcescens T55) [µg/mL] | MIC [1] [µg/mL] | MIC (Proteus rettgeri P7) [µg/mL] | MIC [2] [µg/mL] | MIC (Serratia marcescens S18) [µg/mL] | MIC [3] [µg/mL] | MIC (Enterobacter sp. E8) [µg/mL] | MIC (Alcaligenes faecalis A 1) [µg/mL] | MIC [4] [µg/mL] | MIC [5] [µg/mL] | MIC (Enterobacter cloacae 45) [µg/mL] | MIC [6] [µg/mL] | MIC [7] [µg/mL] | MIC (Escherichia coli RGN 823) [µg/mL] | MIC (Proteus mirabilis P6) [µg/mL] | MIC [8] [µg/mL] | MIC [9] [µg/mL] | SMILES | also measured
1 | 3.13 (≈ 10.3 µM) | 12.5 (≈ 41.1 µM) | 12.5 (≈ 41.1 µM) | 50 (≈ 164 µM) | 50 (≈ 164 µM) | 6.25 (≈ 20.5 µM) | 50 (≈ 164 µM) | 50 (≈ 164 µM) | – | – | – | – | – | – | – | – | – | – | – | – | CC(C)C1C(=O)N2C(C(=O)O)=C(Sc3ccccn3)CC12 (centres unmarked) | –
2 | 180 | 90 | 180 | > 180 | 180 | 180 | 22.5 | > 180 | > 180 | > 180 | 5.6 | 0.04 | < 0.01 | > 180 | 0.04 | < 0.01 | 180 | 45 | > 180 | 0.09 | CCC1C(=O)N2C(C(=O)O)=C(SC3CCCCC3)CC12 (centres unmarked) [Example 67, Sodium 3-cyclohexylthio-6-ethyl-7-oxo-1-azabicyclo[3.2.0.]hept-2-ene-2-carboxylate] | MIC (Sarcina lutea): < 0.01 µg/mL; MIC [10]: < 0.01 µg/mL; MIC (Escherichia coli K-12): 180 µg/mL; MIC [11]: > 180 µg/mL
3 | 25 (≈ 80.3 µM) | > 100 | > 100 | > 100 | > 100 | 100 (≈ 321 µM) | 50 (≈ 161 µM) | > 100 | 50 (≈ 161 µM) | 12.5 (≈ 40.1 µM) | 1.56 (≈ 5.01 µM) | 0.05 (≈ 0.161 µM) | 0.013 (≈ 0.0417 µM) | 50 (≈ 161 µM) | 0.05 (≈ 0.161 µM) | < 0.007 | 100 (≈ 321 µM) | 6.25 (≈ 20.1 µM) | > 100 | 0.013 (≈ 0.0417 µM) | CC(O)C1C(=O)N2C(C(=O)O)=C(SC3CCCCC3)CC12 (centres unmarked) | MIC (Sarcina lutea): < 0.007 µg/mL; MIC [10]: 0.013 µg/mL (≈ 0.0417 µM); MIC (Escherichia coli K-12): 12.5 µg/mL (≈ 40.1 µM); MIC [11]: 100 µg/mL (≈ 321 µM)
4 | > 100 | > 100 | > 100 | > 100 | > 100 | > 100 | 25 (≈ 80.3 µM) | > 100 | > 100 | > 100 | 25 (≈ 80.3 µM) | 0.39 (≈ 1.25 µM) | 0.05 (≈ 0.161 µM) | > 100 | 0.39 (≈ 1.25 µM) | 0.05 (≈ 0.161 µM) | > 100 | 100 (≈ 321 µM) | > 100 | 6.25 (≈ 20.1 µM) | CC(O)[C@H]1C(=O)N2C(C(=O)O)=C(SC3CCCCC3)C[C@H]12 (some centres unmarked) | MIC (Sarcina lutea): 0.05 µg/mL (≈ 0.161 µM); MIC [10]: 0.2 µg/mL (≈ 0.642 µM); MIC (Escherichia coli K-12): > 100 µg/mL; MIC [11]: > 100 µg/mL

Row | SMILES | MIC (Providencia sp. P8) [µg/mL] | MIC (Proteus sp. P22) [µg/mL] | MIC (Proteus vulgaris GN76) [µg/mL] | MIC (Serratia marcescens T55) [µg/mL] | MIC [1] [µg/mL] | MIC (Proteus rettgeri P7) [µg/mL] | MIC [2] [µg/mL] | MIC (Serratia marcescens S18) [µg/mL] | MIC [3] [µg/mL] | MIC (Enterobacter sp. E8) [µg/mL] | MIC (Alcaligenes faecalis A 1) [µg/mL] | MIC [4] [µg/mL] | MIC [5] [µg/mL] | MIC (Enterobacter cloacae 45) [µg/mL] | MIC [6] [µg/mL] | MIC [7] [µg/mL] | MIC (Escherichia coli RGN 823) [µg/mL] | MIC (Proteus mirabilis P6) [µg/mL] | MIC [8] [µg/mL] | MIC [9] [µg/mL] | also measured
5 | CC(=O)NCCSC1=C(C(=O)O)N2C(=O)C(C(C)O)C2C1 (centres unmarked) [PS-3B, 3-(2-acetamidoethylthio)-6-(1-hydroxyethyl)-7-oxo-1-azabicyclo[3.2.0]hept-2-ene-2-carboxylic acid, reference compound] | 0.27 (≈ 0.859 µM) | 17 (≈ 54.1 µM) | 8.5 (≈ 27 µM) | 2.13 (≈ 6.78 µM) | 17 (≈ 54.1 µM) | 17 (≈ 54.1 µM) | 34 (≈ 108 µM) | 2.13 (≈ 6.78 µM) | 0.27 (≈ 0.859 µM) | 0.07 (≈ 0.223 µM) | 0.07 (≈ 0.223 µM) | 0.07 (≈ 0.223 µM) | 0.07 (≈ 0.223 µM) | 1.06 (≈ 3.37 µM) | 0.13 (≈ 0.414 µM) | 0.001 (≈ 0.00318 µM) | 1.06 (≈ 3.37 µM) | 0.53 (≈ 1.69 µM) | 8.5 (≈ 27 µM) | 0.004 (≈ 0.0127 µM) | MIC (Sarcina lutea): 0.004 µg/mL (≈ 0.0127 µM); MIC [10]: 0.13 µg/mL (≈ 0.414 µM); MIC (Escherichia coli K-12): 0.07 µg/mL (≈ 0.223 µM); MIC [11]: 0.53 µg/mL (≈ 1.69 µM)
